Earlier results as cited in patent US20210145841A1, “ENHANCEMENT OF DELIVERY OF LIPOPHILIC ACTIVE AGENTS ACROSS THE BLOOD-BRAIN BARRIER AND METHODS FOR TREATING CENTRAL NERVOUS SYSTEM DISORDERS” (POVIVA CORP., priority 2018, published 2021).

Conditions: in vivo

For `CC1=CC[C@H]2C[C@@H]1C2(C)C` [α-Pinene, (1S,5S)-2,6,6-Trimethylbicyclo[3.1.1]hept-2-ene], the human pulmonary uptake is given as 60%.
